{"source": "patent US20100168228A1", "about": "“NOVEL CHEMOTHERAPEUTIC AGENTS AGAINST INFLAMMATION AND CANCER” (RELIANCE LIFE SCIENCES PVT. LTD., priority 2006, published 2010)", "key": {"NF-κB [1]": {"test_system": "NF-κB", "test": "NF-κB activation assay, RAW 264.7", "type": "cell-based, mouse", "conditions": "RAW 264.7, 100 ng/ml LPS 30 min", "procedure": "FIG. 4: Effect of CAMVE on NF-κB activation in different cell lines. A. HeLa, MCF-7, U937, were incubated at 37° C. for 3 h with 15 μM dose of CAMVE and then stimulated with 0.1 nM TNF for 30 min. After these treatments, nuclear extracts were prepared and assayed for NF-κB using BD Transfactor ELISA method. B. RAW 264.7 cells pretreated with indicated doses of CAMVE were stimulated with 100 ng/ml LPS for 30 min and assayed for NF-κB activation.\nCell pellet was resuspended in lysis buffer (10 mM HEPES, pH 7.9, 1.5 mM MgCl2, 10 mM KCl, 1 mM PMSF, 1 mMDTT, 0.5% NP 40, 0.1 mM EGTA and 0.1 mM EDTA) and allowed to swell on ice for 15 min, followed by centrifugation at 3300×g for 20 min. The cell pellet was resuspended in a volume of lysis buffer equal to the cell pellet volume. The cell suspension was slowly drawn down into a syringe and ejected the content in a single stroke. Disrupted cells were incubated for 15 min on ice, and the disrupted cell suspension was centrifuged at 10,000×g for 20 min at 4° C. […]\nThe assay was performed by using wells coated with oligonucleotides having the consensus DNA binding sites for the specific transcription factors. […] Bound transcription factor was detected by a specific Primary Antibody. […] After addition of the substrate, the Absorbance was recorded at 655 nm."}, "p65": {"test_system": "p65", "test": "Nuclear translocation of p65 NF-kB by immunocytochemistry, HeLa", "type": "cell-based, human", "conditions": "15 μM 3 h, 0.1 nM TNF", "procedure": "FIG. 5: Effect of CAMVE on TNF or LPS induced nuclear translocation of p65. A. HeLa cells either untreated or pretreated with 15 μM CAMVE for 3 h at 37° C. were stimulated with 0.1 nM TNF and immunocytochemical analysis were performed as described in “Materials and Methods”. B. Jurkat (5×10^5 cells/ml) cells were pretreated with indicated concentrations of CAMVE for 3 h and then stimulated with 0.1 nM of TNF for 30 min or 100 ng/ml of SA-LPS (serum activated LPS) for 15 min. After these treatments, cells were washed twice with PBS and nuclei were isolated by incubating the cells with […] Pipes-Triton buffer for 30 min at 4° C. Nuclei were stained for p65 and analyzed using FACS. (i). Representative histogram overlay showing TNF or LPS stimulated (1), basal (2), CAMVE stimulated (3), p65 staining in the nucleus. (ii). Ordinates gives the Isotype-corrected MFI for various treatments.\nHela cells grown on cover slips were washed with 0.1M potassium phosphate buffer (pH 7.4) and fixed with 4% formaldehyde in 0.1M potassium phosphate buffer (pH 7.4) for 1 h at room temperature. The cells were permeabilized with 0.1% Triton X-100 in PBS for 1 h. […] After counterstaining for nuclei with DAPI or Hoechst for 5 mins slides were analyzed under a fluorescence microscope (Labophot-2. Nikon, Tokyo, Japan)."}, "U937": {"test_system": "U937", "test": "Cytotoxicity (MTT) in different human tumor cell lines", "type": "cell-based", "conditions": "30 μM, 72 h", "procedure": "FIG. 9: CAMVE induces differential cytotoxicity in different human tumor cell lines. Different human tumor cell lines were cultured either in the presence or absence of CAMVE (30 μM) for 72 h. The MTT assay was done and absorbance taken at 570 nm. The result indicated are mean O.D. of triplicate culture.\nCytotoxicity was assayed by the modified tetrazolium salt 3-(4,5-dimethylthiazol-2-yl)-2,5-diphenyltetrazolium bromide (MTT) assay as described by Plumb, J A et al. (Cancer Res. 1989 Aug. 15; 49(16):4435-4440)."}, "NF-κB [2]": {"test_system": "NF-κB", "test": "NF-κB activation assay (Transfactor ELISA on nuclear extracts), Jurkat", "type": "cell-based, human", "conditions": "pretreated 3 h", "procedure": "Cell pellet was resuspended in lysis buffer (10 mM HEPES, pH 7.9, 1.5 mM MgCl2, 10 mM KCl, 1 mM PMSF, 1 mMDTT, 0.5% NP 40, 0.1 mM EGTA and 0.1 mM EDTA) and allowed to swell on ice for 15 min, followed by centrifugation at 3300×g for 20 min. The cell pellet was resuspended in a volume of lysis buffer equal to the cell pellet volume. The cell suspension was slowly drawn down into a syringe and ejected the content in a single stroke. Disrupted cells were incubated for 15 min on ice, and the disrupted cell suspension was centrifuged at 10,000×g for 20 min at 4° C. Nuclear pellet was resuspended in a volume of extraction buffer (20 mM HEPES; pH 7.9, 25% glycerol, 1.5 mM MgCl2, 420 mM NaCl, 0.1 mM EDTA, 0.1 mM EGTA, 1 mM PMSF and 1 mM DTT) and incubated on ice for 30 min. The nuclear suspension was centrifuged at 21,000×g for 15 min at 4° C. and the supernatant was collected as nuclear extract and stored at −70° C. Protein concentration was estimated using standard Bradford method.\nTo determine NF-κB activation, transcription profiling was done with the BD Mercury Transfactor kit obtained from BD Biosciences. This method provides rapid, high-throughput detection of specific transcription factors eg NFκB in the nuclear extract. Using an enzyme-linked immunosorbent assay (ELISA)-based format, the Transcription Factor kit detects the DNA binding by specific transcription factors.\nThe assay was performed by using wells coated with oligonucleotides having the consensus DNA binding sites for the specific transcription factors. 50 μg of the nuclear extract proteins were incubated in the wells precoated with their specific oligonucletides, and allowed the activated NFκB to bind to their consensus sequence. Bound transcription factor was detected by a specific Primary Antibody. A horseradish peroxidase conjugated Secondary Antibody was then used to detect the bound Primary Antibody. After addition of the substrate, the Absorbance was recorded at 655 nm. […]"}, "ICAM1 (CD54)": {"test_system": "ICAM1 (CD54)", "test": "ICAM 1 (CD 54) expression by flow cytometry", "type": "cell-based, human", "procedure": "FIG. 7: Effect of CAMVE on TNF or LPS induced ICAM1 (CD54) expression. Cells (5×10^5 cells/ml) were pretreated with different concentrations of CAMVE for 3 h and then treated with TNF (0.1 nM) or SA-LPS (100 ng/ml) for 12 h at 37° C. in a CO2 incubator. Treated cells were washed and stained with anti human CD54-FITC conjugated antibody to measure the amount of surface ICAM1 expression. The relative mean fluorescence intensity (MFI) was measured using FACS Calibur (BD). A. Representative histogram overlay showing TNF or LPS stimulated (1), basal (2), CAMVE pretreated (3). B. Values are given as MFI (mean±S.D.) in percent of basal expression, which was set to 100%.\nCells were pretreated with different concentrations of CAMVE for 3 h and then treated with 0.1 nM of TNF or 100 ng/ml SA-LPS for 12 h at 37° C. in a CO2 incubator. Extent of ICAM 1 expression was detected by staining the washed cells with FITC-labeled monoclonal antibody which binds to the cells expressing the CD 54 (ICAM 1). Unbound FITC-conjugated antibody is then washed from the cells and the cells were resuspended in 0.5 ml of 1% paraformaldehyde, and analyzed using Flow Cytometer (B D FACS Calibur). Cells CD54 structure is fluorescently stained, with the intensity of staining is directly proportional to the density of CD54."}}}
{"compound": "COC(=O)c1ccc(OC(=O)/C=C/c2ccc(O)c(O)c2)c(OC)c1", "note": "[compound 1, Methyl 4-{[(2E)-3-(3,4-dihydroxyphenyl)prop-2-enoyl]oxy}-3-methoxybenzoate]", "values": [{"measurement": "LPS induced NF-κB activation", "setting": "NF-κB [1]", "result": "inhibited NF-κB activation in murine cells"}, {"measurement": "TNF induced p65 nuclear translocation (immunofluorescence)", "setting": "p65", "result": "did not show p65 signal"}, {"measurement": "CAMVE mediated cell death (MTT), sensitivity among tumor cell lines", "setting": "U937", "result": "most sensitive to CAMVE treatment"}, {"measurement": "TNF induced NF-κB activation", "setting": "NF-κB [2]; 0.1 nM TNF 30 min", "result": "inhibited this activation in a concentration dependent manner"}, {"measurement": "concentration of maximum inhibition of TNF induced NF-κB activation", "setting": "NF-κB [2]; 0.1 nM TNF 30 min", "result": 15, "unit": "µM"}, {"measurement": "LPS induced NF-κB activation", "setting": "NF-κB [2]; 100 ng/ml SA-LPS 30 min", "result": "blocked by CAMVE"}, {"measurement": "basal ICAM1 expression", "setting": "ICAM1 (CD54); CAMVE alone", "result": "not altered by incubation with CAMVE alone"}, {"measurement": "TNF or LPS induced ICAM1 expression", "setting": "ICAM1 (CD54); pretreated 3 h, TNF 0.1 nM or SA-LPS 100 ng/ml 12 h", "result": "blocked in CAMVE pretreated cells"}]}
